Assay results published in patent publication US5427766A, “Radiolabeled steroids for use in radiochemical-guided surgery” (priority 1993, dated 1995).

Key:
Set-up in all cases: species or system athymic female NCR-Nu Mice
[1] = system: MDA-MB-231 (ER-) breast tumor xenografts; assay: In vivo biolocalization with gamma detecting probe, tumor/background ratio, MDA-MB-231 (ER-) tumor; conditions: MDA-MB-231 tumor, foreleg background, n = 5
Method: (§1) In vivo biolocalization of 11β-ethyl-17α-(Z)-[^125 I](iodovinyl)estra-3,17β-diol (5) and a control compound 16α-[^125 I](iodovinyl)-3,17β-estradiol was determined in athymic female NCR-Nu Mice bearing subcutaneous MCF-7(ER+) breast tumor xenografts and MDA-MB-231 (ER-) breast tumor xenografts. The mice were at least 5 weeks old prior to injection into the right-hand flank with […] of MCF-7 breast carcinoma cells ([…]). One day prior to this procedure, the mice were implanted subcutaneously with a 1.7 mg estradiol pellet in the scapular region. Four to six weeks post-injection of the MCF-7 cells the estradiol pellet was removed and the mice inoculated in the left hind flank with 75 μL NDA-MB-231 breast tumor cells ([…]). Seven to ten days prior to injection of the test compounds, an estradiol pellet was again implanted in the scapular region. One to two days prior to injection of the test compounds, the estradiol pellet was removed, and 5 mice arbitrarily assigned to each test group.
(§2) The mice were each injected via tail vein with between 3 ([…]) and […] ([…]) 125 iodine in approximately […] of phosphate-buffered saline. At various time intervals after injection of the test compounds, each group of mice was anesthetized with methoxyflurane in order to measure the radioactivity over the ER+ and ER- tumors and the front leg for use as a background and the thoraxic area which served as a blood pool control using a gamma detecting probe (RIGS ^TM Model 1001 control unit, Neoprobe Corporation, Columbus, Ohio). Three 20 to 60 second counts were recorded at each area measured at each time point.
(§3) ^c Tu/Bkg = Mean(1-5) of (mean tumor countsn - mean foreleg
(§4) background countsn)/mean foreleg background

[2] = system: MCF-7(ER+) breast tumor xenografts; assay: In vivo biolocalization with gamma detecting probe, tumor/background ratio, MCF-7 (ER+) tumor; conditions: for Tumor/Background Ratio (Tu/Bkg): MCF-7 tumor, foreleg background, n = 5
Method: as §1, §2, §3, §4

[3] = system: MCF-7(ER+) breast tumor xenografts; assay: In vivo localization (biodistribution) in athymic female nude mice bearing subcutaneous MCF-7 tumor xenografts; conditions: for Percent Injected Dose/Gram, blood / Percent Injected Dose/Gram, fat / Percent Injected Dose/Gram, kidney / Percent Injected Dose/Gram, liver / Percent Injected Dose/Gram, muscle / Percent Injected Dose/Gram, spleen / Percent Injected Dose/Gram, tumor / Percent Injected Dose/Gram, uteri: tail vein, subcutaneous MCF-7, mean, n = 5
Method: (§5) In vivo localization of 11β-ethyl-17α-(Z)-[^125 I](iodovinyl)estra-3,17β-diol (5) and a control compound 16α-[^125 I]iodovinyl-3,17β-estradiol (commercially available from DuPont New England Nuclear, MA) was determined in athymic female NCR-Nu Mice (purchased from Simonsen Laboratories, Gilroy, Calif.) bearing subcutaneous MCF-7(ER+) breast tumor xenografts. Prior to injection of the compounds, the mice were each implanted with fragments of MCF-7 breast tumor (approximately 2 cubic millimeters) in the subcutis of the left flank. At approximately the same time, a 1.7 mg estradiol pellet (Innovative Research of America, Toledo, Ohio) was implanted in the scapular region. The tumors were allowed to grow until they reached between 50 and 200 mg by visual inspection (approximately four to five weeks) prior to injection of the test compounds. One day prior to injection of the test compounds, the estradiol pellet was removed.
(§6) The mice were each injected via tail vein with between 3 (1.1×10^5 Bq) and 6 μCi ([…]) ^125 I in approximately 50 μL of phosphate buffered saline. The mice were sacrificed at various time intervals. After exsanguination, the selected organ/tissue were excised, weighed and radioactivity measured in a gamma counter. The counts per minute (cpm) of 125I in each tissue was determined and expressed as cpm per gram of tissue per injected dose multiplied by 100 (percent injected dose/gram).

[4] = system: MCF-7 tumors located intraperitoneally; assay: In vivo localization (biodistribution) in athymic female nude mice bearing intraperitoneal MCF-7 tumors; conditions: for Percent Injected Dose/Gram, blood / Percent Injected Dose/Gram, fat / Percent Injected Dose/Gram, kidney / Percent Injected Dose/Gram, liver / Percent Injected Dose/Gram, muscle / Percent Injected Dose/Gram, spleen / Percent Injected Dose/Gram, tumor / Percent Injected Dose/Gram, uteri: tail vein, intraperitoneal MCF-7, mean, n = 5
Method: as §5, §6
The procedure of Example 3 was followed except each mouse was inoculated intraperitoneally with MCF-7 breast carcinoma cell line (7.5×10^6 cell/50 μL) rather than implanted subcutaneously with MCF-7 breast tumor. One day prior to this procedure, a 1.7 mg estradiol pellet was implanted subcutaneously in the scapular region. The tumor cells were allowed to form solid tumor nodules for 4 to 6 weeks prior to injection of the test compounds.

C[C@]12CC[C@@H]3c4ccc(O)cc4CC[C@H]3[C@@H]1C[C@@H]([125I])[C@@H]2O [16α-Iodo-[^125 I]-3,17β-Estradiol]
Tumor/Background Ratio (Tu/Bkg) ([1]; 10-12 hours): 2.51 ± 1.40
Tumor/Background Ratio (Tu/Bkg) ([1]; 2 hours): 10.96
Tumor/Background Ratio (Tu/Bkg) ([1]; 6 hours): 6.23 ± 3.02
Tumor/Background Ratio (Tu/Bkg) ([1]; 24 hours): 0.85 ± 0.29
Tumor/Background Ratio (Tu/Bkg) ([1]; 48 hours): 0.08 ± 0.19
Tumor/Background Ratio (Tu/Bkg) ([2]; 10-12 hours): 4.46 ± 1.44
Tumor/Background Ratio (Tu/Bkg) ([2]; 2 hours): 12.73
Tumor/Background Ratio (Tu/Bkg) ([2]; 6 hours): 9.58 ± 4.69
Tumor/Background Ratio (Tu/Bkg) ([2]; 24 hours): 1.13 ± 0.16
Tumor/Background Ratio (Tu/Bkg) ([2]; 48 hours): 0.13 ± 0.08
tumor to background ratios / localization at the tumor site (in words) ([2]; after 10 to 12 hours): not being maintained or localized at the tumor site
tumor to background ratios (in words) ([2]; at 10 to 12 hours): good tumor to background ratios
radioactivity in the uteri and tumors ([3]; 48 hours post-injection, uteri and tumors, subcutaneous MCF-7): no radioactivity defected
Percent Injected Dose/Gram, blood ([3]; 10-12 hours): 0.16 Percent Injected Dose/Gram
Percent Injected Dose/Gram, blood ([3]; 2 hours): 0.59 Percent Injected Dose/Gram
Percent Injected Dose/Gram, blood ([3]; 6 hours): 0.58 Percent Injected Dose/Gram
Percent Injected Dose/Gram, blood ([3]; 24 hours): 0.03 Percent Injected Dose/Gram
Percent Injected Dose/Gram, blood ([3]; 48 hours): 0.01 Percent Injected Dose/Gram
Percent Injected Dose/Gram, fat ([3]; 10-12 hours): 0.00 Percent Injected Dose/Gram
Percent Injected Dose/Gram, fat ([3]; 2 hours): 0.88 Percent Injected Dose/Gram
Percent Injected Dose/Gram, fat ([3]; 6 hours): 0.25 Percent Injected Dose/Gram
Percent Injected Dose/Gram, fat ([3]; 24 hours): 0.00 Percent Injected Dose/Gram
Percent Injected Dose/Gram, fat ([3]; 48 hours): 0.00 Percent Injected Dose/Gram
Percent Injected Dose/Gram, kidney ([3]; 10-12 hours): 0.10 Percent Injected Dose/Gram
Percent Injected Dose/Gram, kidney ([3]; 2 hours): 0.64 Percent Injected Dose/Gram
Percent Injected Dose/Gram, kidney ([3]; 6 hours): 0.37 Percent Injected Dose/Gram
Percent Injected Dose/Gram, kidney ([3]; 24 hours): 0.00 Percent Injected Dose/Gram
Percent Injected Dose/Gram, kidney ([3]; 48 hours): 0.00 Percent Injected Dose/Gram
Percent Injected Dose/Gram, liver ([3]; 10-12 hours): 0.55 Percent Injected Dose/Gram
Percent Injected Dose/Gram, liver ([3]; 2 hours): 3.33 Percent Injected Dose/Gram
Percent Injected Dose/Gram, liver ([3]; 6 hours): 1.93 Percent Injected Dose/Gram
Percent Injected Dose/Gram, liver ([3]; 24 hours): 0.09 Percent Injected Dose/Gram
Percent Injected Dose/Gram, liver ([3]; 48 hours): 0.06 Percent Injected Dose/Gram
Percent Injected Dose/Gram, muscle ([3]; 10-12 hours): 0.00 Percent Injected Dose/Gram
Percent Injected Dose/Gram, muscle ([3]; 2 hours): 0.07 Percent Injected Dose/Gram
Percent Injected Dose/Gram, muscle ([3]; 6 hours): 0.05 Percent Injected Dose/Gram
Percent Injected Dose/Gram, muscle ([3]; 24 hours): 0.00 Percent Injected Dose/Gram
Percent Injected Dose/Gram, muscle ([3]; 48 hours): 0.00 Percent Injected Dose/Gram
Percent Injected Dose/Gram, spleen ([3]; 10-12 hours): 0.05 Percent Injected Dose/Gram
Percent Injected Dose/Gram, spleen ([3]; 2 hours): 0.28 Percent Injected Dose/Gram
Percent Injected Dose/Gram, spleen ([3]; 6 hours): 0.25 Percent Injected Dose/Gram
Percent Injected Dose/Gram, spleen ([3]; 24 hours): 0.00 Percent Injected Dose/Gram
Percent Injected Dose/Gram, spleen ([3]; 48 hours): 0.00 Percent Injected Dose/Gram
Percent Injected Dose/Gram, tumor ([3]; 10-12 hours): 0.09 Percent Injected Dose/Gram
Percent Injected Dose/Gram, tumor ([3]; 2 hours): 0.91 Percent Injected Dose/Gram
Percent Injected Dose/Gram, tumor ([3]; 6 hours): 0.41 Percent Injected Dose/Gram
Percent Injected Dose/Gram, tumor ([3]; 24 hours): 0.00 Percent Injected Dose/Gram
Percent Injected Dose/Gram, tumor ([3]; 48 hours): 0.00 Percent Injected Dose/Gram
Percent Injected Dose/Gram, uteri ([3]; 10-12 hours): 0.38 Percent Injected Dose/Gram
Percent Injected Dose/Gram, uteri ([3]; 2 hours): 2.81 Percent Injected Dose/Gram
Percent Injected Dose/Gram, uteri ([3]; 6 hours): 1.02 Percent Injected Dose/Gram
Percent Injected Dose/Gram, uteri ([3]; 24 hours): 0.02 Percent Injected Dose/Gram
Percent Injected Dose/Gram, uteri ([3]; 48 hours): 0.00 Percent Injected Dose/Gram
radioactivity in the uteri and tumors ([4]; 48 hours post-injection, uteri and tumors, intraperitoneal MCF-7): no radioactivity defected
Percent Injected Dose/Gram, blood ([4]; 10-12 hours): 0.50 Percent Injected Dose/Gram
Percent Injected Dose/Gram, blood ([4]; 2 hours): 0.84 Percent Injected Dose/Gram
Percent Injected Dose/Gram, blood ([4]; 6 hours): 0.74 Percent Injected Dose/Gram
Percent Injected Dose/Gram, blood ([4]; 24 hours): 0.06 Percent Injected Dose/Gram
Percent Injected Dose/Gram, blood ([4]; 48 hours): 0.03 Percent Injected Dose/Gram
Percent Injected Dose/Gram, fat ([4]; 10-12 hours): 0.01 Percent Injected Dose/Gram
Percent Injected Dose/Gram, fat ([4]; 2 hours): 0.92 Percent Injected Dose/Gram
Percent Injected Dose/Gram, fat ([4]; 6 hours): 0.14 Percent Injected Dose/Gram
Percent Injected Dose/Gram, fat ([4]; 24 hours): 0.00 Percent Injected Dose/Gram
Percent Injected Dose/Gram, fat ([4]; 48 hours): 0.00 Percent Injected Dose/Gram
Percent Injected Dose/Gram, kidney ([4]; 10-12 hours): 0.24 Percent Injected Dose/Gram
Percent Injected Dose/Gram, kidney ([4]; 2 hours): 0.83 Percent Injected Dose/Gram
Percent Injected Dose/Gram, kidney ([4]; 6 hours): 0.41 Percent Injected Dose/Gram
Percent Injected Dose/Gram, kidney ([4]; 24 hours): 0.03 Percent Injected Dose/Gram
Percent Injected Dose/Gram, kidney ([4]; 48 hours): 0.00 Percent Injected Dose/Gram
Percent Injected Dose/Gram, liver ([4]; 10-12 hours): 0.84 Percent Injected Dose/Gram
Percent Injected Dose/Gram, liver ([4]; 2 hours): 6.54 Percent Injected Dose/Gram
Percent Injected Dose/Gram, liver ([4]; 6 hours): 5.37 Percent Injected Dose/Gram
Percent Injected Dose/Gram, liver ([4]; 24 hours): 0.15 Percent Injected Dose/Gram
Percent Injected Dose/Gram, liver ([4]; 48 hours): 0.08 Percent Injected Dose/Gram
Percent Injected Dose/Gram, muscle ([4]; 10-12 hours): 0.00 Percent Injected Dose/Gram
Percent Injected Dose/Gram, muscle ([4]; 2 hours): 0.12 Percent Injected Dose/Gram
Percent Injected Dose/Gram, muscle ([4]; 6 hours): 0.07 Percent Injected Dose/Gram
Percent Injected Dose/Gram, muscle ([4]; 24 hours): 0.00 Percent Injected Dose/Gram
Percent Injected Dose/Gram, muscle ([4]; 48 hours): 0.00 Percent Injected Dose/Gram
Percent Injected Dose/Gram, spleen ([4]; 10-12 hours): 0.15 Percent Injected Dose/Gram
Percent Injected Dose/Gram, spleen ([4]; 2 hours): 0.34 Percent Injected Dose/Gram
Percent Injected Dose/Gram, spleen ([4]; 6 hours): 0.36 Percent Injected Dose/Gram
Percent Injected Dose/Gram, spleen ([4]; 24 hours): 0.01 Percent Injected Dose/Gram
Percent Injected Dose/Gram, spleen ([4]; 48 hours): 0.00 Percent Injected Dose/Gram
Percent Injected Dose/Gram, tumor ([4]; 10-12 hours): 0.40 Percent Injected Dose/Gram
Percent Injected Dose/Gram, tumor ([4]; 2 hours): 1.35 Percent Injected Dose/Gram
Percent Injected Dose/Gram, tumor ([4]; 6 hours): 0.75 Percent Injected Dose/Gram
Percent Injected Dose/Gram, tumor ([4]; 24 hours): 0.02 Percent Injected Dose/Gram
Percent Injected Dose/Gram, tumor ([4]; 48 hours): 0.00 Percent Injected Dose/Gram
Percent Injected Dose/Gram, uteri ([4]; 10-12 hours): 0.45 Percent Injected Dose/Gram
Percent Injected Dose/Gram, uteri ([4]; 2 hours): 2.89 Percent Injected Dose/Gram
Percent Injected Dose/Gram, uteri ([4]; 6 hours): 1.09 Percent Injected Dose/Gram
Percent Injected Dose/Gram, uteri ([4]; 24 hours): 0.02 Percent Injected Dose/Gram
Percent Injected Dose/Gram, uteri ([4]; 48 hours): 0.00 Percent Injected Dose/Gram
